“Also recorded” adds a separate entry of the source. Like-named read-outs stand apart in the source and are kept apart here.
Assays:
[1] = system: Staphylococcus aureus ATCC 25923; test: Microdilution antimicrobial assay (CLSI), S. aureus; assay type: cell-based; settings: for Percentage values of microbial growth, S. aureus: compound at 100 μM, mean and standard deviation, 24 h, relative to positive controls; for Antimicrobial activity against S. aureus (in words): up to 100 μM; for Microbial growth, S. aureus (Table S1): ligand at 100 μM, mean values and standard deviations
Description: (§1) Reference strains of Staphylococcus aureus (ATCC 25923), Escherichia coli (ATCC 25922) and Candida albicans (ATCC 10231) were used in this study as model systems. These laboratory strains were purchased from the American Type Culture Collection (ATCC) (Manassas, VA, USA). […] The antimicrobial properties of the metal complexes were determined by a previously established microdilution method in agreement with the Clinical and Laboratory Standard Institute (CLSI) guidelines. […] The metal complexes were two-fold serially diluted and tested in the range of 100-0.19 μM. Positive controls (in regular media), negative controls (only compounds), solvent controls (DMSO dilutions) and the reference drugs were included in the tests. The plate was incubated at 37 °C for 24 h, and the OD630nm was measured.

[2] = system: Escherichia coli ATCC 25922; test: Microdilution antimicrobial assay (CLSI), E. coli; assay type: cell-based; settings: for Percentage values of microbial growth, E. coli: mean and standard deviation, 24 h; for Microbial growth, E. coli (Table S1): ligand at 100 μM, mean values and standard deviations
Description: as §1

[3] = system: Candida albicans ATCC 10231; test: Microdilution antifungal assay (CLSI), C. albicans; assay type: cell-based; settings: for Percentage values of microbial growth, C. albicans: mean and standard deviation
Text: Reference strains of Staphylococcus aureus (ATCC 25923), Escherichia coli (ATCC 25922) and Candida albicans (ATCC 10231) were used in this study as model systems. These laboratory strains were purchased from the American Type Culture Collection (ATCC) (Manassas, VA, USA). The cultures were routinely grown on 5% blood agar plates or Sabouraud Dextrose agar plates (Biolife Italiana S.r.l., Milan, Italy) and used freshly in the assays.
The antimicrobial properties of the metal complexes were determined by a previously established microdilution method in agreement with the Clinical and Laboratory Standard Institute (CLSI) guidelines. […] The metal complexes were two-fold serially diluted and tested in the range of 100–0.19 µM. Positive controls (in regular media), negative controls (only compounds), solvent controls (DMSO dilutions) and the reference drugs were included in the tests. The plate was incubated at 37 °C for 24 h, and the OD630nm was measured.

[4] = system: HEL 299 fibroblasts (ATCC-CCL-137); test: Cell viability and proliferation assay (WST8/CCK-8); assay type: cell-based, human; settings: for Percentage values of cell viability, HEL 299: compound at 100 μM, mean and standard deviation, relative to untreated controls; for Cell proliferation, HEL 299 (Table S1): ligand at 100 μM, mean values and standard deviations
Description: HEL 299 cells, obtained from the American Type Culture Collection (ATCC-CCL-137), were selected to investigate the effect of the metal complexes on non-malignant human fibroblasts. Briefly, cells were cultured in Eagle’s Minimum Essential Medium (EMEM) supplemented with 10% fetal bovine serum (FBS), 100 U/mL penicillin and 100 µg/mL streptomycin at 37 °C with 5% CO2. For the biological assays, cells were grown in 96-well plates at 10^4 cells/well. After 24 h of incubation at 37 °C, the monolayer was treated with 100 µL of medium containing the 2-fold serial dilutions of the compounds in the range 100–0.19 µM. Cell viability was assessed by a colorimetric WST8-based assay according to the manufacturer’s instructions (CCK-8, Cell Counting Kit-8, Dojindo Molecular Technologies, Rockville, MD, USA) by measuring the OD at 450 nm. Data are expressed as the percentage of cell viability relative to the untreated controls. The CC50 was obtained on the corresponding dose–response curves generated as previously reported for IC50 values.

[5] = system: human red blood cells (hRBCs); test: Hemolytic activity assay; assay type: cell-based
Description: The hemolytic activity of the metal complexes was evaluated as the amount of hemoglobin released by the disruption of human red blood cells (hRBCs). Briefly, a suspension of hRBCs (4% w/v in PBS) was prepared from the peripheral blood of anonymous blood donors available for research purposes. […] Then, the supernatants were spectrophotometrically evaluated at OD405nm. Untreated hRBCs (in PBS) and hRBCs incubated with 1% Triton X-100 were employed as negative and positive controls, respectively. The hemolysis percentage was calculated as [OD405nm (sample) − OD405nm (negative control)]/[OD405nm (positive control) − OD405nm (negative control)] × 100. Minimal hemolytic concentrations (MHCs) were defined as the compound concentration causing 10% hemolysis.

pmaxGFP plasmid DNA = test: In vitro DNA cleavage/mobility shift assay (agarose gel electrophoresis); assay type: biochemical; settings: for Plasmid DNA cleavage in presence of H2O2 (in words): 100 µM of sample, 200 ng plasmid DNA, 10 mM H2O2, 37 °C, 2 h
Description: The nuclease activity of the metal complexes was investigated by means of gel electrophoresis after incubating the reaction mixtures (100 µM of sample and 200 ng of plasmid DNA) at 37 °C for 2 h. […] Thus, the assays with the metal complexes were performed in the absence and presence of H2O2 at 10 mM to check whether the DNA cleavage and damage take place through a hydrolytic or an oxidative mechanism.
Studies of the interactions between the metal compounds and plasmid DNA were carried out by agarose gel electrophoresis. Thus, 200 ng of pmaxGFP plasmid, 3527 bps, (Lonza, Basel, Switzerland) were incubated with the metal compounds at 100 μM in the absence or presence of 10 mM of H2O2 in Tris-HCl buffer (NaCl 50 mM, Tris-HCl 5 mM, pH 7.20). The mixture was incubated at 37 °C for 2 h, then the reactions were quenched by adding 5 μL of the loading buffer solution and analyzed by 1% agarose gel electrophoresis.

[6] = compound at 100 μM, 1 h at 37 °C
[7] = ligand at 100 μM, mean values and standard deviations
[8] = mean values and 95% Confidence Interval, dose–response

Molecule	Percentage values of microbial growth, S. aureus [1] [%]	Percentage values of microbial growth, E. coli ([2]; compound at 100 μM) [%]	Percentage values of microbial growth, C. albicans ([3]; compound at 100 μM, 24 h) [%]	Percentage values of cell viability, HEL 299 [4] [%]	Percentage values of hemolytic activity, hRBCs [5, 6] [%]	Microbial growth, S. aureus (Table S1) [1]	Microbial growth, E. coli (Table S1) [2]	Microbial growth, C. albicans (Table S1) [3, 7]	Cell proliferation, HEL 299 (Table S1) [4]	further results
COc1cccc(/C=N/NC(N)=O)c1[O-].[Cl-].[Cu+2] [Compound 5, [Cu(HL3)Cl]∙0.5H2O∙0.5CH3OH]	83.6 ± 1.4	55.8 ± 0.5	77.8 ± 2.0	20.3 ± 0.6	<5					Antimicrobial activity against S. aureus (in words) [1]: lack of antibacterial activity; Reduction of E. coli growth compared to the untreated cells ([2]; compound at 100 μM): 44.2%; Antimicrobial activity against E. coli (in words) ([2]; up to 100 μM): lack of antibacterial activity; Plasmid DNA cleavage in presence of H2O2 (in words) (pmaxGFP plasmid DNA): degrade plasmid DNA
CCCCCCCC(=O)N/N=C/c1cc(S(=O)(=O)[O-])cc(OC)c1[O-].[Cl-].[Cu+2].[Na+] [Compound 13, [NaCu(HL7)Cl]]	99.8 ± 3.6	105.2 ± 2.0	81.7 ± 5.4	88.7 ± 0.9	<5					Plasmid DNA cleavage in presence of H2O2 (in words) (pmaxGFP plasmid DNA): only exception
Triton X-100 [reference compound]										Percentage values of hemolytic activity, hRBCs [5]: 100 ± 2.6%
OC(Cn1cncn1)(Cn1cncn1)c1ccc(F)cc1F [FCZ, fluconazole, reference compound]										Microbial growth, C. albicans (Table S1) ([3]; fluconazole): 10.0 ± 0.6; Percentage values of microbial growth, C. albicans ([3]; fluconazole at 1.6 μM): 10.0 ± 0.6%
CCCCCCCC(=O)N/N=C/c1cc(S(=O)(=O)[O-])cc(OC)c1O.[Na+] [NaH2L7]						102.2 ± 1.9	101.9 ± 1.3	83.2 ± 2.7	87.6 ± 4.9	
CCNC(=S)N/N=C/c1cc(S(=O)(=O)[O-])cc(OC)c1[O-].[Cl-].[Cu+2].[Na+] [Compound 9]	104.8 ± 0.7	96.6 ± 1.1	91.4 ± 2.5	85.8 ± 1.7	<5					
COc1cc(S(=O)(=O)[O-])cc(/C=N/NC(N)=O)c1[O-].[Cl-].[Cu+2].[Na+] [Compound 10, [NaCu(HL6)Cl]]	97.8 ± 1.4	99.8 ± 1.8	71.6 ± 1.3	63.5 ± 3.8	<5					
CCNC(=S)N/N=C/c1cccc(OC)c1O [Compound H2L2]						96.8 ± 3.5	92.8 ± 3.1	83.3 ± 14.4	97.2 ± 13.2	
COc1cc(S(=O)(=O)[O-])cc(/C=N/NC(N)=S)c1[O-].[Cl-].[Cu+2].[Na+] [Compound 8]	106.3 ± 1.6	104.1 ± 9.3	89.9 ± 5.3	90.4 ± 0.6	<5					
CCNC(=S)N/N=C/c1cc(S(=O)(=O)[O-])cc(OC)c1O.[Na+] [NaH2L5]						98.4 ± 3.0	107.4 ± 0.9	95.6 ± 7.5	90.0 ± 4.9	
COc1cc(S(=O)(=O)[O-])cc(/C=N/NC(N)=O)c1O.[Na+] [NaH2L6]						86.5 ± 1.9	97.1 ± 0.7	85.3 ± 1.6	90.3 ± 0.8	
CCNC(=S)N/N=C/c1cccc(OC)c1[O-].[Cl-].[Cu+2] [Compound 4]		110.5 ± 4.8	15.6 ± 5.5	9.1 ± 1.1	<5					IC50 [1, 8]: 3.5 µM; Antimicrobial activity against S. aureus (in words) [1]: completely inhibited; also recorded: good activity; also recorded: micromolar activity; IC50 [3, 8]: 54.8 µM; Antimicrobial activity against C. albicans (in words) ([3]; up to 100 μM): slightly interfered; CC50 [4, 8]: 1.4 µM; Plasmid DNA cleavage in presence of H2O2 (in words) (pmaxGFP plasmid DNA): extensive damage to the plasmid DNA
COc1cc(S(=O)(=O)[O-])cc(/C=N/NC(N)=S)c1O.[Na+] [NaH2L4]						99.0 ± 3.5	100.2 ± 1.0	95.6 ± 3.2	85.6 ± 10.2	
N.N.[Cl][Pt][Cl] [CP, cisplatin, reference compound]										Binding interaction with plasmid DNA, electrophoresis mobility (in words) (pmaxGFP plasmid DNA; cisplatin at 500, 100 and 50, 37°C for 2 h, pmaxGFP): cause a shift of the electrophoresis mobility

— publication PMC12155845, “Antimicrobial Activity of Copper(II), Nickel(II) and Zinc(II) Complexes with Semicarbazone and Thiosemicarbazone Ligands Derived from Substituted Salicylaldehydes” (Molecules, 2025)
